According to article PMC11167047 (Cell Death Discovery, 2024):

Test system: retinoblastoma (RB) protein phosphorylation
Experiment: immunopurification of RB from Ramos cells
Type: cell-based, human
Description: For immunopurification (IP) the Dynabeads^TM Protein G Immunoprecipitation kit from Invitrogen (#10007D) was used. For IP, 2 × 10^6 cells were seeded in a 24-well plate and treated with the appropriate compound. After incubation, cells were lysed with NP-40 containing lysis buffer (Hepes-NaOH 50 mM pH 7.5, NaCl 150 mM, NP-40 1% v/v, MgCl2 2.5 mM, 1x Protease inhibitor (cOmplete^TM, EDTA-free Protease Inhibitor Cocktail), 1x Phosphatase Inhibitor (PhosSTOP^TM)) for 30 min. A protein content of 50 µg per IP was used, the protein concentration was measured by Bradford assay (Bio-Rad #5000006) with the photometer. Protein G is conjugated to the magnetic Dynabeads^TM. In the first step, the Dynabeads^TM were incubated for 10 min with the specific RB antibody (Abcam #ab181616; rabbit), which was used in a dilution of 1:80. The antibody bound to the conjugated protein G and a bead-antibody complex was formed. By placing the tube on a magnet, the beads were easily separated from the solution and the supernatant could be removed. The bead-antibody complex was washed once with Ab binding and washing buffer. In the second step, the cell lysate was incubated for 10 min with the bead-antibody complex to allow the RB protein from the lysate to bind to the antibody. The bead complex was washed several times with washing buffer by placing the tube on the magnet and removing the supernatant. […]

COc1ccnc2[nH]cc(-c3cc(N)nc(N)c3)c12 [meriolin 16]
phosphorylation of RB at p-Ser612 and p-Thr821 (immunopurified RB) (1 µM, 4 h): less phosphorylated | phosphorylation of RB at p-Ser612 and p-Thr821 (immunopurified RB) (24 h): completely abrogated
